Laboratory results: ChEMBL document CHEMBL5223100, “Homobivalent, Trivalent, and Covalent PROTACs: Emerging Strategies for Protein Degradation” (J Med Chem, 2022)

What was measured:
[1] = target: T1, Tyrosine-protein kinase BTK (Homo sapiens, UniProt Q06187); test: Induction of BTK degradation in human MOLM-14 cells; format: cell-based
[2] = target: T1, Tyrosine-protein kinase BTK; test: Induction of BTK degradation in human MOLM-14 cells assessed as maximum degradation at 200 nM relative to control; format: cell-based
MOLM-14 = test: Antiproliferative activity against human MOLM-14 cells; format: functional, cell-based
[3] = Antiproliferative activity against human MINO cells; format: functional, cell-based
[4] = target: Hepatitis C virus serine protease, NS3/NS4A (Hepatitis C virus, UniProt A3EZI9+D2K2A8); test: Inhibition of HCV NS3/4a protease in Huh7.5 SGR cells using [Ac-DE-D(Edans)-EE-Abu-[COO]AS-K(Dabcyl)-NH2] as substrate preincubated for 15 mins followed by substrate addition and incubated for 1 hr by FRET assay; format: cell-based, Hepacivirus hominis
[5] = Induction of HCV NS3 degradation after 4 hrs; parameters: species or system Hepacivirus hominis
Hepatitis C virus [6] = test: Antiviral activity against wild type HCV; format: functional, organism-based, Hepacivirus hominis
Hepatitis C virus [7] = test: Antiviral activity against HCV harboring NS3 V55A mutant; format: functional, organism-based, Hepacivirus hominis
Protein fem-1 homolog B = Protein fem-1 homolog B (Homo sapiens, UniProt Q9UK73); test: Binding affinity to FEM1B (unknown origin)
[8] = target: T2, Bromodomain-containing protein 4 (Homo sapiens, UniProt O60885); test: Induction of BRD4 degradation in HEK293 cells after 8 hrs; format: cell-based
[9] = target: T2, Bromodomain-containing protein 4; test: Induction of BRD4 degradation in HEK293 cells assessed as maximum degradation after 8 hrs relative to control; format: cell-based
[10] = target: T2, Bromodomain-containing protein 4; test: Induction of BRD4 degradation in 231MFP cells; format: cell-based
[11] = target: Cyclin-dependent kinase 9 (Homo sapiens) (UniProt P50750); test: Induction of CDK9 degradation in human MOLT-4 cells assessed as maximum degradation after 16 hrs relative to control; format: cell-based
CWR22R = test: Antiproliferative activity against human 22Rv1 cells after 72 hrs; format: functional, cell-based; conditions: 22Rv1, 72 h
PC-3 = test: Antiproliferative activity against human PC-3 cells after 72 hrs; format: functional, cell-based; conditions: PC-3, 72 h
[12] = target: Serine/threonine-protein kinase Sgk3 (Homo sapiens) (UniProt Q96BR1); test: Induction of SGK3 degradation in HEK293 cells assessed as maximum degradation after 30 mins relative to control; format: cell-based
[13] = target: T3, Phosphatidylinositol 3-kinase catalytic subunit type 3 (Homo sapiens, UniProt Q8NEB9); test: Induction of VPS34 degradation in HEK293 cells assessed as maximum degradation after 30 mins relative to control; format: cell-based
[14] = target: Serine/threonine-protein kinase Sgk3 (Homo sapiens) (UniProt Q96BR1); test: Induction of SGK3 degradation in HEK293 cells assessed as maximum degradation at 300 nM after 48 hrs relative to control; format: cell-based
[15] = target: T3, Phosphatidylinositol 3-kinase catalytic subunit type 3; test: Induction of VPS34 degradation in HEK293 cells assessed as maximum degradation at 300 nM after 48 hrs relative to control; format: cell-based
[16] = target: Serine/threonine-protein kinase Sgk3 (Homo sapiens, UniProt Q96BR1); test: Induction of SGK3 degradation in HEK293 cells; format: cell-based
[17] = target: T3, Phosphatidylinositol 3-kinase catalytic subunit type 3; test: Induction of VPS34 degradation in HEK293 cells; format: cell-based
RPMI-8226 [18] = test: Antiproliferative activity against human RPMI-8226 cells; format: functional, cell-based
[19] = Induction of hRpn13Pru degradation in human RPMI-8226 cells; format: cell-based
RPMI-8226 [20] = test: Induction of hRpn13Pru degradation in human RPMI-8226 cells assessed as maximum degradation at 50 uM relative to control; format: cell-based
[21] = target: E3 ubiquitin-protein ligase RNF114 (Homo sapiens, UniProt Q9Y508); test: Binding affinity to RNF114 (unknown origin)
[22] = target: von Hippel-Lindau disease tumor suppressor (Homo sapiens, UniProt P40337); test: Binding affinity to VHL (unknown origin)
[23] = Induction of HaloTag7 fused GFP degradation in HEK293 cells; format: cell-based; conditions: Homo sapiens
HEK293 = test: Induction of HaloTag7 fused GFP degradation in HEK293 cells assessed as maximum degradation relative to control; format: cell-based; conditions: Homo sapiens
Protein cereblon = Protein cereblon (Homo sapiens, UniProt Q96SW2); test: Displacement of dBET6 from CRBN (unknown origin) transfected in BRD4 BD2-GFP mCherry report cells incubated for 5 hrs
[24] = target: T2, Bromodomain-containing protein 4; test: Induction of BRD4 long isoform degradation in human 231MFP cells; format: cell-based
[25] = target: T2, Bromodomain-containing protein 4; test: Induction of BRD4 short isoform degradation in human 231MFP cells; format: cell-based

CN(CCCNC(=O)CNc1cccc2c1C(=O)N(C1CCC(=O)NC1=O)C2=O)C(C)(C)/C=C(\C#N)C(=O)N1CCC[C@@H](n2nc(-c3ccc(Oc4ccccc4)cc3)c3c(N)ncnc32)C1 (stereo partly specified)
DC50 [1]: 6.6 nM | Emax [2]: 81% | IC50 (MOLM-14): 300 nM | IC50 [3]: 80 nM

CCC[C@H](NC(=O)[C@@H]1[C@H]2CCC[C@H]2CN1C(=O)[C@@H](NC(=O)[C@@H](NC(=O)c1cnc(C(=O)NCCOCCOCCOc2cc3c4c(cccc4c2)C(=O)N(C2CCC(=O)NC2=O)C3=O)cn1)C1CCCCC1)C(C)(C)C)C(=O)C(=O)NC1CC1 (stereo partly specified)
IC50 [4]: 247 nM | DC50 [5]: 50 nM | IC50 (Hepatitis C virus [6]): 558 nM | IC50 (Hepatitis C virus [7]): 508 nM

Cc1sc2c(c1C)C(c1ccc(Cl)cc1)=N[C@@H](CC(=O)NCCCCCNC(=O)CN1CCOc3cc(N(CCC#N)C(=O)CCl)ccc31)c1nnc(C)n1-2
IC50 (Protein fem-1 homolog B): 1500 nM | DC50 [8]: 250 nM | Emax [9]: 94% | DC50 [10]: 198 nM

COc1cc(/C=C/C(=O)N2CCC=CC2=O)cc(OC)c1OCCN1CCN(C(=O)CN2CCC(C(=O)Nc3ncc(SCc4ncc(C(C)(C)C)o4)s3)CC2)CC1
Emax [11]: 96% | EC50 (CWR22R): 4.4 nM | EC50 (PC-3): 6.4 nM

Cc1ncsc1-c1ccc(CNC(=O)[C@@H]2C[C@@H](O)CN2C(=O)[C@@H](NC(=O)C2(C#N)CC2)C(C)(C)C)c(OCCOCCOCCOCCCCCCCl)c1
Emax [12]: 50% | Emax [13]: 50% | Emax [14]: 95% | Emax [15]: 95% | DC50 [16]: 3 nM | DC50 [17]: 3 nM

Cc1ncsc1-c1ccc([C@H](C)NC(=O)[C@@H]2C[C@@H](O)CN2C(=O)[C@@H](NC(=O)CCCCc2cn(-c3ccc(C(=O)Nc4cccc(/C=C(\C#N)C(=O)Nc5ccccc5C(=O)O)c4)cc3)nn2)C(C)(C)C)cc1
IC50 (RPMI-8226 [18]): 4200 nM | DC50 [19]: 39000 nM | Emax (RPMI-8226 [20]): 80%

COC(=O)C[C@H]1[C@]2(C)C3=C(C)[C@H](c4ccoc4-c4ccc(C(=O)NCCCNC(=O)C[C@@H]5N=C(c6ccc(Cl)cc6)C6C(C)=C(C)SC6n6c(C)nnc65)cc4)C[C@H]3O[C@@H]2C2OC(=O)[C@]3(C)C=CC(=O)[C@@]1(C)[C@@H]23 (stereo partly specified)
IC50 [21]: 240 nM

Cc1ncsc1-c1ccc(CNC(=O)[C@@H]2C[C@@H](O)CN2C(=O)[C@H](C(C)C)N2Cc3ccccc3C2=O)c(OCCOCCOCCOCCCCCCCl)c1
IC50 [22]: 540 nM | DC50 [23]: 19 nM | Emax (HEK293): 90%

C=CC(=O)N1CCN(c2nc(NCCCN3CCN(CCCNc4cccc5c4C(=O)N(C4CCC(=O)NC4=O)C5=O)CC3)nc3c(F)c(-c4cc(O)cc5ccccc45)c(Cl)cc23)CC1 (stereo unspecified)
EC50 (Protein cereblon): 79 nM

Cc1sc2c(c1C)C(c1ccc(Cl)cc1)=N[C@@H](CC(=O)NCCCCOc1ccc(C3CC(c4ccc(Br)cc4)=NN3C(=O)CCl)cc1)c1nnc(C)n1-2 (stereo partly specified)
DC50 [24]: 36 nM | DC50 [25]: 14 nM
